Measurements reported in US10028966B2 (Avalyn Pharma Inc., priority 2014, dated 2018).

What was measured:
[1] = Pharmacokinetics and tissue distribution (lung, plasma, heart, kidney) of co-solvent formulations, intratracheal bolus aerosol; format: in vivo, Sprague-Dawley rats; conditions: for concentration at 0.167 hr / concentration at 0.333 hr / concentration at 0.667 hr / concentration at 0 h / concentration at 4 min / concentration at 2.5 h / concentration at 0.167 h / concentration at 0.333 h / concentration at 0.667 h / concentration at 1 h: Sprague-Dawley, rat, 4 mg/kg, Pirfenidone, Mean, about 4 mg/kg IT aerosol; for concentration at 0.167 hr / concentration at 0.333 hr / concentration at 0.667 hr: other: intratracheal bolus aerosol (nebulizing catheter); for concentration at 0 h / concentration at 4 min / concentration at 2.5 h / concentration at 0.167 h / concentration at 0.333 h / concentration at 0.667 h / concentration at 1 h: other: intratracheal bolus aerosol; for concentration at 4 min: 0.0667 hr
Protocol: Selected formulations were prepared for pharmacokinetic analysis following aerosol delivery to rat lung. […] Formulations prepared for this study are outlined in Table 9. […] The sample was agitated until completely dissolved. […] Filtered samples were analyzed by HPLC.

[2] = Extended-duration intratracheal and oral pharmacokinetic study; format: in vivo, Wistar rats; conditions: for AUC(0-t) / Cmax: Wistar, rat, plasma
Protocol: Previous intratracheal aerosol delivery (see Example 6) was performed as a single bolus instillation just above the first bifurcation of the lung. For in vivo efficacy studies, an attempt was made to mimic tidal inhaled breathing by splitting the dose into equal parts and administering as before, but over a 2 minute period. […] Doses were prepared in 0.45% sodium chloride solution and were administered as described in Table 21.
Plasma samples and entire lungs were taken at pre-dose, 2, 4, 6, 10, 30, 60 and 120 minutes post dosing. Materials were extracted and pirfenidone quantitated as mcg/mL plasma and μg/gram lung tissue.

[3] = inhaled or intranasal, intratracheal aerosol 2.5 mg/kg
[4] = inhaled or intranasal, intratracheal aerosol 5 mg/kg
[5] = inhaled or intranasal, intratracheal aerosol 10 mg/kg
[6] = intratracheal aerosol 2.5 mg/kg

SMILES: Cc1ccc(=O)n(-c2ccccc2)c1 [pirfenidone, 5-methyl-1-phenyl-2-(1H)-pyridone]
- concentration at 0.167 hr ([1]; heart, heart tissue, Group 1): 4910 ng/g
- concentration at 0.333 hr ([1]; heart, heart tissue, Group 1): 3850 ng/g
- concentration at 0.667 hr ([1]; heart, heart tissue, Group 1): 1800 ng/g
- concentration at 0.167 hr ([1]; heart, heart tissue, Group 2): 4100 ng/g
- concentration at 0.333 hr ([1]; heart, heart tissue, Group 2): 3130 ng/g
- concentration at 0.667 hr ([1]; heart, heart tissue, Group 2): 2190 ng/g
- concentration at 0.167 hr ([1]; heart, heart tissue, Group 6): 4950 ng/g
- concentration at 0.333 hr ([1]; heart, heart tissue, Group 6): 3430 ng/g
- concentration at 0.667 hr ([1]; heart, heart tissue, Group 6): 2220 ng/g
- concentration at 0 h ([1]; heart, heart tissue, Group 1): 20 ng/g
- concentration at 4 min ([1]; heart, heart tissue, Group 1): 7900 ng/g
- concentration at 2.5 h ([1]; heart, heart tissue, Group 1): 90 ng/g
- concentration at 0 h ([1]; heart, heart tissue, Group 2): 190 ng/g
- concentration at 4 min ([1]; heart, heart tissue, Group 2): 5920 ng/g
- concentration at 2.5 h ([1]; heart, heart tissue, Group 2): 120 ng/g
- concentration at 0 h ([1]; heart, heart tissue, Group 6): 80 ng/g
- concentration at 4 min ([1]; heart, heart tissue, Group 6): 6320 ng/g
- concentration at 2.5 h ([1]; heart, heart tissue, Group 6): 120 ng/g
- concentration at 0 h ([1]; kidney, kidney tissue, Group 1): 10 ng/g
- concentration at 4 min ([1]; kidney, kidney tissue, Group 1): 9880 ng/g
- concentration at 0.167 h ([1]; kidney, kidney tissue, Group 1): 6620 ng/g
- concentration at 0.333 h ([1]; kidney, kidney tissue, Group 1): 4870 ng/g
- concentration at 0.667 h ([1]; kidney, kidney tissue, Group 1): 2860 ng/g
- concentration at 0 h ([1]; kidney, kidney tissue, Group 2): 470 ng/g
- concentration at 4 min ([1]; kidney, kidney tissue, Group 2): 10800 ng/g
- concentration at 0.167 h ([1]; kidney, kidney tissue, Group 2): 8300 ng/g
- concentration at 0.333 h ([1]; kidney, kidney tissue, Group 2): 7440 ng/g
- concentration at 0.667 h ([1]; kidney, kidney tissue, Group 2): 3310 ng/g
- concentration at 1 h ([1]; kidney, kidney tissue, Group 2): 1750 ng/g
- concentration at 2.5 h ([1]; kidney, kidney tissue, Group 2): 180 ng/g
- concentration at 0 h ([1]; kidney, kidney tissue, Group 6): 270 ng/g
- concentration at 4 min ([1]; kidney, kidney tissue, Group 6): 12900 ng/g
- concentration at 0.167 h ([1]; kidney, kidney tissue, Group 6): 6650 ng/g
- concentration at 0.333 h ([1]; kidney, kidney tissue, Group 6): 4870 ng/g
- concentration at 0.667 h ([1]; kidney, kidney tissue, Group 6): 3530 ng/g
- concentration at 1 h ([1]; kidney, kidney tissue, Group 6): 1710 ng/g
- adverse events ([1]; about 4 mg/kg intratracheal bolus aerosol, co-solvent formulations, rats): No adverse events were noted
- Lung Tissue Cmax ([2]; 30 mg/kg PO, rat (Table 22)): ~10 µg/mL
- AUC(0-t) [2, 3]: 3200 ng·h/mL
- Cmax [2, 3]: 3400 ng/mL
- AUC(0-t) [2, 4]: 5800 ng·h/mL
- Cmax [2, 4]: 8800 ng/mL
- AUC(0-t) [2, 5]: 14600 ng·h/mL
- Cmax [2, 5]: 22800 ng/mL
- AUC(0-t) ([2]; oral gavage 10 mg/kg): 4400 ng·h/mL
- Cmax ([2]; oral gavage 10 mg/kg): 3600 ng/mL
- AUC(0-t) ([2]; oral gavage 30 mg/kg): 12900 ng·h/mL
- Cmax ([2]; oral gavage 30 mg/kg): 9800 ng/mL
- AUC(0-t) ([2]; oral gavage 100 mg/kg): 24200 ng·h/mL
- Cmax ([2]; oral gavage 100 mg/kg): 26300 ng/mL
- Lung Tissue AUC(0-2 hr) [2, 6]: 3.5 µg·h/g
- Lung Tissue Cmax [2, 6]: 14.4 μg/gram
- Lung Tissue AUC(0-2 hr) ([2]; intratracheal aerosol 5 mg/kg): 6.6 µg·h/g
- Lung Tissue Cmax ([2]; intratracheal aerosol 5 mg/kg): 27.9 μg/gram
- Lung Tissue AUC(0-2 hr) ([2]; intratracheal aerosol 10 mg/kg): 14.5 µg·h/g
- Lung Tissue Cmax ([2]; intratracheal aerosol 10 mg/kg): 61.1 μg/gram
- adverse events ([2]; intratracheal aerosol over 2 minutes or oral gavage, Wistar rats): No adverse events were noted
- Lung Tissue AUC(0-2 hr) ([2]; oral gavage 10 mg/kg): 4.9 µg·h/g
- Lung Tissue Cmax ([2]; oral gavage 10 mg/kg): 3.5 μg/gram
- Lung Tissue AUC(0-2 hr) ([2]; oral gavage 30 mg/kg): 13.5 µg·h/g
- Lung Tissue Cmax ([2]; oral gavage 30 mg/kg): 9.8 μg/gram
- Lung Tissue AUC(0-2 hr) ([2]; oral gavage 100 mg/kg): 27.9 µg·h/g
- Lung Tissue Cmax ([2]; oral gavage 100 mg/kg): 33.6 μg/gram
